Legend:
Test in all cases: NCI SRB growth inhibition (single dose 10 µM / five-dose)
Assay type in all cases: cell-based, human
RXF 393 = conditions: Homo sapiens; for inhibition at 10 µM: RXF 393 (Renal cancer), read-out: GI%; for GI50: RXF 393, Renal cancer, five-dose
Outline: (§1)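 Two-stage NCI-60 screen: single-dose test first, then five-dose testing. Growth is scored by sulforhodamine B staining of TCA-fixed cells relative to a time-zero plate, and TGI is taken where Ti = Tz.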

SN12C = conditions: Homo sapiens; SN12C, Renal cancer; five-dose
Outline: as §1

SF-295 = conditions: Homo sapiens; for inhibition at 10 µM: SF-295 (CNS cancer), read-out: GI%; for GI50: SF-295, CNS cancer, five-dose
Outline: as §1

SK-OV-3 = conditions: Homo sapiens; for inhibition at 10 µM: SK-OV-3 (Ovarian cancer), read-out: GI%; for GI50: SK-OV-3, Ovarian cancer, five-dose
Outline: as §1

SF-539 = conditions: Homo sapiens; for inhibition at 10 µM: SF-539 (CNS cancer), read-out: GI%; for GI50: SF-539, CNS cancer, five-dose
Outline: as §1

UACC-62 = conditions: Homo sapiens; for inhibition at 10 µM: UACC-62 (Melanoma), read-out: GI%; for GI50: UACC-62, Melanoma, five-dose
Outline: as §1

SW-620 = conditions: Homo sapiens; for inhibition at 10 µM: SW-620 (Colon cancer), read-out: GI%; for GI50: SW-620, Colon cancer, five-dose
Outline: as §1

SK-MEL-28 = conditions: Homo sapiens; for inhibition at 10 µM: SK-MEL-28 (Melanoma), read-out: GI%; for GI50: SK-MEL-28, Melanoma, five-dose
Outline: as §1

MDA-MB-231/ATCC = conditions: Homo sapiens; for inhibition at 10 µM: MDA-MB-231/ATCC (Breast cancer), read-out: GI%; for GI50: MDA-MB-231/ATCC, Breast cancer, five-dose
Outline: as §1

CCRF-CEM = conditions: Homo sapiens; for inhibition at 10 µM: CCRF-CEM (Leukemia), read-out: GI%; for GI50: CCRF-CEM, Leukemia, five-dose
Outline: as §1

EKVX = conditions: Homo sapiens; for inhibition at 10 µM: EKVX (Non-small cell lung cancer), read-out: GI%; for GI50: EKVX, Non-small cell lung cancer, five-dose
Outline: as §1

OVCAR-8 = conditions: Homo sapiens; for inhibition at 10 µM: OVCAR-8 (Ovarian cancer), read-out: GI%; for GI50: OVCAR-8, Ovarian cancer, five-dose
Outline: as §1

HS 578 T = conditions: Homo sapiens; for inhibition at 10 µM: HS 578 T (Breast cancer), read-out: GI%; for GI50: HS 578 T, Breast cancer, five-dose
Outline: as §1

NCI-H460 = conditions: Homo sapiens; for inhibition at 10 µM: NCI-H460 (Non-small cell lung cancer), read-out: GI%; for GI50: NCI-H460, Non-small cell lung cancer, five-dose
Outline: as §1

TK-10 = conditions: Homo sapiens; for inhibition at 10 µM: TK-10 (Renal cancer), read-out: GI%; for GI50: TK-10, Renal cancer, five-dose
Outline: as §1

BT-549 = conditions: Homo sapiens; for inhibition at 10 µM: BT-549 (Breast cancer), read-out: GI%; for GI50: BT-549, Breast cancer, five-dose
Outline: as §1

MCF7 = conditions: Homo sapiens; for inhibition at 10 µM: MCF7 (Breast cancer), read-out: GI%; for GI50: MCF7, Breast cancer, five-dose
Outline: as §1

M14 = conditions: Homo sapiens; for inhibition at 10 µM: M14 (Melanoma), read-out: GI%; for GI50: M14, Melanoma, five-dose
Outline: as §1

MDA-MB-435 = conditions: Homo sapiens; for inhibition at 10 µM: MDA-MB-435 (Melanoma), read-out: GI%; for GI50: MDA-MB-435, Melanoma, five-dose
Outline: as §1

A549/ATCC = conditions: Homo sapiens; for inhibition at 10 µM: A549/ATCC (Non-small cell lung cancer), read-out: GI%; for GI50: A549/ATCC, Non-small cell lung cancer, five-dose
Outline: as §1

786–0 = conditions: Homo sapiens; for inhibition at 10 µM: 786–0 (Renal cancer), read-out: GI%; for GI50: 786–0, Renal cancer, five-dose
Outline: as §1

MDA-MB-468 = conditions: Homo sapiens; for inhibition at 10 µM: MDA-MB-468 (Breast cancer), read-out: GI%; for GI50: MDA-MB-468, Breast cancer, five-dose
Outline: as §1

KM12 = conditions: Homo sapiens; for inhibition at 10 µM: KM12 (Colon cancer), read-out: GI%; for GI50: KM12, Colon cancer, five-dose
Outline: as §1

SF-268 = conditions: Homo sapiens; for inhibition at 10 µM: SF-268 (CNS cancer), read-out: GI%; for GI50: SF-268, CNS cancer, five-dose
Outline: as §1

CAKI-1 = conditions: Homo sapiens; for inhibition at 10 µM: CAKI-1 (Renal cancer), read-out: GI%; for GI50: CAKI-1, Renal cancer, five-dose
Outline: as §1

SR = conditions: Homo sapiens; for inhibition at 10 µM: SR (Leukemia), read-out: GI%; for GI50: SR, Leukemia, five-dose
Outline: as §1

With COc1cccc(C=NNC(=O)c2ccc3[nH]c(-c4ccc(Cl)cc4)nc3c2)c1 [8q, 2-(4-Chlorophenyl)-N'-(3-methoxybenzylidene)-1H-benzo[d]imidazole-5-carbohydrazide] the inhibition at 10 µM (RXF 393) was > 100%, the GI50 (RXF 393) was 2060 nM and the GI50 (SN12C) was 2220 nM. For the same compound, the inhibition at 10 µM (SF-295) was > 100%, the GI50 (SF-295) was 2170 nM and the inhibition at 10 µM (SK-OV-3) was > 100%. For the same compound, the GI50 (SK-OV-3) was 2020 nM, the inhibition at 10 µM (SF-539) was > 100% and the GI50 (SF-539) was 7140 nM. For the same compound, the inhibition at 10 µM (UACC-62) was > 100%, the GI50 (UACC-62) was 4920 nM and the inhibition at 10 µM (SW-620) was > 100%. For the same compound, the GI50 (SW-620) was 2930 nM, the inhibition at 10 µM (SK-MEL-28) was > 100% and the GI50 (SK-MEL-28) was 2150 nM. The inhibition at 10 µM (MDA-MB-231/ATCC) was > 100%, the GI50 (MDA-MB-231/ATCC) was 1890 nM and the inhibition at 10 µM (CCRF-CEM) was 47%. For the same compound, the GI50 (CCRF-CEM) was 1950 nM, the inhibition at 10 µM (EKVX) was > 100% and the GI50 (EKVX) was 3520 nM. For the same compound, the inhibition at 10 µM (OVCAR-8) was > 100%, the GI50 (OVCAR-8) was 2690 nM and the inhibition at 10 µM (HS 578 T) was > 100%. The GI50 (HS 578 T) was 2710 nM, the inhibition at 10 µM (NCI-H460) was > 100% and the GI50 (NCI-H460) was 3340 nM. The inhibition at 10 µM (TK-10) was > 100%, the GI50 (TK-10) was 23900 nM and the inhibition at 10 µM (BT-549) was 6.97%. The GI50 (BT-549) was 10100 nM, the inhibition at 10 µM (MCF7) was > 100% and the GI50 (MCF7) was 2570 nM. The inhibition at 10 µM (M14) was > 100%, the GI50 (M14) was 2150 nM and the inhibition at 10 µM (MDA-MB-435) was 98.9%. For the same compound, the GI50 (MDA-MB-435) was 3900 nM, the inhibition at 10 µM (A549/ATCC) was > 100% and the GI50 (A549/ATCC) was 3220 nM. The inhibition at 10 µM (786–0) was > 100%, the GI50 (786–0) was 1850 nM and the inhibition at 10 µM (MDA-MB-468) was > 100%. The GI50 (MDA-MB-468) was 2970 nM, the inhibition at 10 µM (KM12) was > 100% and the GI50 (KM12) was 4420 nM. The inhibition at 10 µM (SF-268) was > 100%, the GI50 (SF-268) was 2180 nM and the inhibition at 10 µM (CAKI-1) was > 100%. For the same compound, the GI50 (CAKI-1) was 3840 nM, the inhibition at 10 µM (SR) was > 100% and the GI50 (SR) was 4150 nM.

In the case of COc1cccc(C=NNC(=O)c2ccc3[nH]c(-c4ccc(Cl)cc4)nc3c2)c1O [8r, 2-(4-Chlorophenyl)-N'-(2-hydroxy-3-methoxybenzylidene)-1H-benzo[d]imidazole-5-carbohydrazide], the inhibition at 10 µM (RXF 393) is reported as > 100%, the GI50 (RXF 393) is reported as 1410 nM and the GI50 (SN12C) is reported as 1720 nM. The inhibition at 10 µM (SF-295) was > 100%, the GI50 (SF-295) was 2200 nM and the inhibition at 10 µM (SK-OV-3) was > 100%. For the same compound, the GI50 (SK-OV-3) was 2080 nM, the inhibition at 10 µM (SF-539) was > 100% and the GI50 (SF-539) was 1070 nM. The inhibition at 10 µM (UACC-62) was > 100%, the GI50 (UACC-62) was 1230 nM and the inhibition at 10 µM (SW-620) was > 100%. For the same compound, the GI50 (SW-620) was 1320 nM, the inhibition at 10 µM (SK-MEL-28) was > 100% and the GI50 (SK-MEL-28) was 1620 nM. The inhibition at 10 µM (MDA-MB-231/ATCC) was > 100%, the GI50 (MDA-MB-231/ATCC) was 1820 nM and the inhibition at 10 µM (CCRF-CEM) was > 100%. For the same compound, the GI50 (CCRF-CEM) was 430 nM, the inhibition at 10 µM (EKVX) was > 100% and the GI50 (EKVX) was 4560 nM. For the same compound, the inhibition at 10 µM (OVCAR-8) was > 100%, the GI50 (OVCAR-8) was 1580 nM and the inhibition at 10 µM (HS 578 T) was > 100%. The GI50 (HS 578 T) was 700 nM, the inhibition at 10 µM (NCI-H460) was > 100% and the GI50 (NCI-H460) was 1350 nM. The inhibition at 10 µM (TK-10) was > 100%, the GI50 (TK-10) was 6460 nM and the inhibition at 10 µM (BT-549) was > 100%. For the same compound, the GI50 (BT-549) was 1360 nM, the inhibition at 10 µM (MCF7) was > 100% and the GI50 (MCF7) was 660 nM. For the same compound, the inhibition at 10 µM (M14) was > 100%, the GI50 (M14) was 2070 nM and the inhibition at 10 µM (MDA-MB-435) was > 100%. The GI50 (MDA-MB-435) was 1810 nM, the inhibition at 10 µM (A549/ATCC) was > 100% and the GI50 (A549/ATCC) was 3680 nM. For the same compound, the inhibition at 10 µM (786–0) was > 100%, the GI50 (786–0) was 1490 nM and the inhibition at 10 µM (MDA-MB-468) was > 100%. The GI50 (MDA-MB-468) was 1440 nM, the inhibition at 10 µM (KM12) was > 100% and the GI50 (KM12) was 1660 nM. For the same compound, the inhibition at 10 µM (SF-268) was > 100%, the GI50 (SF-268) was 1210 nM and the inhibition at 10 µM (CAKI-1) was > 100%. For the same compound, the GI50 (CAKI-1) was 2310 nM, the inhibition at 10 µM (SR) was > 100% and the GI50 (SR) was 500 nM.
